Where two headings read alike, the source gives them in different places.
How the values were obtained:
Format in all cases: cell-based
NCI-H522 = experiment: NCI single dose screening (10 µM); conditions: Homo sapiens; NCI-H522, Non-small cell lung cancer, single dose 10^−5 M; read-out: GI% (cell growth inhibition percentage)
HCC-2998 = experiment: NCI single dose screening (10 µM); conditions: Homo sapiens; HCC-2998, Colon cancer, single dose 10^−5 M; read-out: GI% (cell growth inhibition percentage)
EKVX = experiment: NCI single dose screening (10 µM); conditions: Homo sapiens, Non-small cell lung cancer, single dose 10^−5 M, read-out: GI% (cell growth inhibition percentage)
SF-295 = experiment: NCI single dose screening (10 µM); conditions: Homo sapiens; SF-295, CNS cancer, single dose 10^−5 M; read-out: GI% (cell growth inhibition percentage)
MCF7 = experiment: NCI single dose screening (10 µM); conditions: Homo sapiens; MCF7, Breast cancer, single dose 10^−5 M; read-out: GI% (cell growth inhibition percentage)
KM12 = experiment: NCI single dose screening (10 µM); conditions: Homo sapiens; KM12, Colon cancer, single dose 10^−5 M; read-out: GI% (cell growth inhibition percentage)
SF-268 = experiment: NCI single dose screening (10 µM); conditions: Homo sapiens; SF-268, CNS cancer, single dose 10^−5 M; read-out: GI% (cell growth inhibition percentage)
MOLT-4 = experiment: NCI single dose screening (10 µM); conditions: Homo sapiens; MOLT-4, Leukaemia, single dose 10^−5 M; read-out: GI% (cell growth inhibition percentage)
CAKI-1 = experiment: NCI single dose screening (10 µM); conditions: Homo sapiens; CAKI-1, Renal cancer, single dose 10^−5 M; read-out: GI% (cell growth inhibition percentage)
HOP-62 = experiment: NCI single dose screening (10 µM); conditions: Homo sapiens; HOP-62, Non-small cell lung cancer, single dose 10^−5 M; read-out: GI% (cell growth inhibition percentage)
U251 = experiment: NCI single dose screening (10 µM); conditions: Homo sapiens, U-251; U251, CNS cancer, single dose 10^−5 M; read-out: GI% (cell growth inhibition percentage)
BT-549 = experiment: NCI single dose screening (10 µM); conditions: Homo sapiens; BT-549, Breast cancer, single dose 10^−5 M; read-out: GI% (cell growth inhibition percentage)
HT-29 = experiment: NCI single dose screening (10 µM); conditions: Homo sapiens; HT-29, Colon cancer, single dose 10^−5 M; read-out: GI% (cell growth inhibition percentage)
HCT-116 = experiment: NCI single dose screening (10 µM); conditions: Homo sapiens; HCT-116, Colon cancer, single dose 10^−5 M; read-out: GI% (cell growth inhibition percentage)
[1] = system: NCI-55 cancer cell line panel; experiment: NCI single dose screening (10 µM), whole panel; conditions: Homo sapiens; mean over NCI-55 cell lines, single dose 10^−5 M; read-out: Mean inhibition, % (mean GI%)
TK-10 = experiment: NCI single dose screening (10 µM); conditions: Homo sapiens; TK-10, Renal cancer, single dose 10^−5 M; read-out: GI% (cell growth inhibition percentage)
RXF 393 = experiment: NCI single dose screening (10 µM); conditions: Homo sapiens; RXF 393, Renal cancer, single dose 10^−5 M; read-out: GI% (cell growth inhibition percentage)
OVCAR-5 = experiment: NCI single dose screening (10 µM); conditions: Homo sapiens; OVCAR-5, Ovarian cancer, single dose 10^−5 M; read-out: GI% (cell growth inhibition percentage)
SF-539 = experiment: NCI single dose screening (10 µM); conditions: Homo sapiens; SF-539, CNS cancer, single dose 10^−5 M; read-out: GI% (cell growth inhibition percentage)
K-562 = experiment: NCI single dose screening (10 µM); conditions: Homo sapiens, K562; K-562, Leukaemia, single dose 10^−5 M; read-out: GI% (cell growth inhibition percentage)
COLO 205 = experiment: NCI single dose screening (10 µM); conditions: Homo sapiens; COLO 205, Colon cancer, single dose 10^−5 M; read-out: GI% (cell growth inhibition percentage)
OVCAR-8 = experiment: NCI single dose screening (10 µM); conditions: Homo sapiens; OVCAR-8, Ovarian cancer, single dose 10^−5 M; read-out: GI% (cell growth inhibition percentage)
CCRF-CEM = experiment: NCI single dose screening (10 µM); conditions: Homo sapiens, Leukaemia, single dose 10^−5 M, read-out: GI% (cell growth inhibition percentage)
MDA-MB-231/ATCC = experiment: NCI single dose screening (10 µM); conditions: Homo sapiens; MDA-MB-231/ATCC, Breast cancer, single dose 10^−5 M; read-out: GI% (cell growth inhibition percentage)
NCI/ADR-RES = experiment: NCI single dose screening (10 µM); conditions: Homo sapiens, Ovarian cancer, single dose 10^−5 M, read-out: GI% (cell growth inhibition percentage)
M14 = experiment: NCI single dose screening (10 µM); conditions: Homo sapiens; M14, Melanoma, single dose 10^−5 M; read-out: GI% (cell growth inhibition percentage)
MDA-MB-468 = experiment: NCI single dose screening (10 µM); conditions: Homo sapiens; MDA-MB-468, Breast cancer, single dose 10^−5 M; read-out: GI% (cell growth inhibition percentage)
NCI-H23 = experiment: NCI single dose screening (10 µM); conditions: Homo sapiens; NCI-H23, Non-small cell lung cancer, single dose 10^−5 M; read-out: GI% (cell growth inhibition percentage)
HL-60(TB) = experiment: NCI single dose screening (10 µM); conditions: Homo sapiens
OVCAR-4 = experiment: NCI single dose screening (10 µM); conditions: Homo sapiens; OVCAR-4, Ovarian cancer, single dose 10^−5 M; read-out: GI% (cell growth inhibition percentage)
ACHN = experiment: NCI single dose screening (10 µM); conditions: Homo sapiens, Renal cancer, single dose 10^−5 M, read-out: GI% (cell growth inhibition percentage)

| SMILES | inhibition at 10 µM (NCI-H522) [%] | inhibition at 10 µM (HCC-2998) [%] | inhibition at 10 µM (EKVX) [%] | inhibition at 10 µM (SF-295) [%] | inhibition at 10 µM (MCF7) [%] | inhibition at 10 µM (KM12) [%] | inhibition at 10 µM (SF-268) [%] | inhibition at 10 µM (MOLT-4) [%] | inhibition at 10 µM (CAKI-1) [%] | inhibition at 10 µM (HOP-62) [%] | inhibition at 10 µM (U251) [%] | inhibition at 10 µM (BT-549) [%] | inhibition at 10 µM (HT-29) [%] | inhibition at 10 µM (HCT-116) [%] | inhibition at 10 µM [1] [%] | inhibition at 10 µM (TK-10) [%] | inhibition at 10 µM (RXF 393) [%] | inhibition at 10 µM (OVCAR-5) [%] | inhibition at 10 µM (SF-539) [%] | inhibition at 10 µM (K-562) [%] | also measured |
| --- | --- | --- | --- | --- | --- | --- | --- | --- | --- | --- | --- | --- | --- | --- | --- | --- | --- | --- | --- | --- | --- |
| Cc1c(C(=O)N/N=C2\C(=O)Nc3ccc(Br)cc32)oc2ccccc12 [Compound 5c] | 10.3 | < 10 | 32.1 | 20.3 | 26.7 | 20.5 | 11.7 | < 10 | 26.6 | 41.4 | 42.6 | 22.1 | < 10 | 32 | 22 | < 10 | 11.1 | < 10 | 57.9 | 18 | inhibition at 10 µM (COLO 205): < 10%; inhibition at 10 µM (OVCAR-8): 22.5%; inhibition at 10 µM (CCRF-CEM): < 10%; inhibition at 10 µM (MDA-MB-231/ATCC): 29.9%; inhibition at 10 µM (NCI/ADR-RES): 29.3%; inhibition at 10 µM (M14): 25.4%; inhibition at 10 µM (MDA-MB-468): < 10%; inhibition at 10 µM (NCI-H23): 33%; inhibition at 10 µM (HL-60(TB); HL-60(TB), Leukaemia, single dose 10^−5 M, read-out: GI% (cell growth inhibition percentage)): 21.5%; inhibition at 10 µM (OVCAR-4): 31%; inhibition at 10 µM (ACHN): 35.5% |
| COc1ccc2c(c1)/C(=N/NC(=O)c1oc3ccccc3c1C)C(=O)N2 [Compound 5d] | 45.7 | 56.5 | 62.7 | 95 | 77.1 | 56.2 | 42.3 | 49.1 | 152 | 124 | 98 | 29.9 | 72.7 | 129 | 87.3 | 194 | 136 | 52.3 | 62.6 | 57.5 | inhibition at 10 µM (COLO 205): 77.2%; inhibition at 10 µM (OVCAR-8): 62.2%; inhibition at 10 µM (CCRF-CEM): 42.9%; inhibition at 10 µM (MDA-MB-231/ATCC): 76.2%; inhibition at 10 µM (NCI/ADR-RES): 69.5%; inhibition at 10 µM (M14): 71.3%; inhibition at 10 µM (MDA-MB-468): 80.1%; inhibition at 10 µM (NCI-H23): 89.3%; inhibition at 10 µM (HL-60(TB); HL-60, read-out: GI% (cell growth inhibition percentage)): 46.1%; inhibition at 10 µM (OVCAR-4): 153%; inhibition at 10 µM (ACHN): 151% |

Reference: article PMC8245078, “Development of novel benzofuran-isatin conjugates as potential antiproliferative agents with apoptosis inducing mechanism in Colon cancer” (Journal of Enzyme Inhibition and Medicinal Chemistry, 2021)
